Laboratory results as given in patent US9676796B2, “Tricyclic benzoxaborole compound, preparation method and use thereof” (DONG-A ST CO., LTD., priority 2013, dated 2017).
Converted amounts (≈) assume the structure as drawn.

Experiments:
E. aerogenes = test: Antibacterial activity in vitro, agar plate dilution MIC; format: cell-based, Enterobacter aerogenes; details: Klebsiella aerogenes; clinical isolate, Mueller-Hinton agar dilution
Method: (§1) The antibacterial activity of the novel derivatives prepared by EXAMPLE 1 to 5 was evaluated in vitro by agar plate dilution method using Mueller-Hinton agar according to the NCCLS (National Committee for Clinical Laboratory Standards. 2000. Methods for dilution antimicrobial susceptibility tests for bacteria that grow aerobically. Approved standard, NCCLS document M7-A5, 5th ed, vol 20, no. 2. National Committee for Clinical Laboratory Standards, Wayne, Pa.). The test strains were clinical isolates from patients in general hospital in Korea from 2010 to 2013. The antibacterial activity was examined against important gram-negative bacteria including carbapenem-resistant Acinetobacter baumannii (A. baumannii), carbapenem-resistant Pseudomonas aeruginosa (P. aeruginosa), Escherichia coli (E. coli), and Klebsiella pneumonia (K. pneumonia) and was expressed as minimum inhibitory concentrations (MIC, μg/ml) in table 1.
(§2) The antibacterial activity of compounds (in Preparation Examples 1 to 4) and meropenem (MEPM, carbapenem-based antibiotics) were examined according to the same method shown as EXPERIMENTAL EXAMPLE 1.

N. gonorrhoeae = test: as above; format: cell-based; details: Neisseria gonorrhoeae; clinical isolate, Mueller-Hinton agar dilution
C. freundii = test: as above; format: cell-based; details: Citrobacter freundii; clinical isolate, Mueller-Hinton agar dilution
Method: as §1, §2

P. mirabilis = test: as above; format: cell-based; details: Proteus mirabilis; clinical isolate, Mueller-Hinton agar dilution
Method: as §1, §2

[1] = tested on: carbapenem-resistant Acinetobacter baumannii (A. baumannii); test: as above; format: cell-based; details: carbapenem-resistant clinical isolate, Mueller-Hinton agar dilution
Method: as §1, §2

M. morganii = test: as above; format: cell-based; details: Morganella morganii; clinical isolate, Mueller-Hinton agar dilution
Method: as §1, §2

[2] = tested on: Escherichia coli (E. coli); test: as above; format: cell-based; details: clinical isolate, Mueller-Hinton agar dilution
Method: as §1, §2

[3] = tested on: Klebsiella pneumoniae (K. pneumoniae); test: as above; format: cell-based; details: clinical isolate, Mueller-Hinton agar dilution
Method: as §1, §2

P. vulgaris = test: as above; format: cell-based; details: Proteus vulgaris; clinical isolate, Mueller-Hinton agar dilution
Method: as §1, §2

E. cloacae = test: as above; format: cell-based; details: Enterobacter cloacae; clinical isolate, Mueller-Hinton agar dilution
Method: as §1, §2

[4] = tested on: carbapenem-resistant Pseudomonas aeruginosa (P. aeruginosa); test: as above; format: cell-based; details: carbapenem-resistant clinical isolate, Mueller-Hinton agar dilution
Method: as §1, §2

K. oxytoca = test: as above; format: cell-based; details: Klebsiella oxytoca; clinical isolate, Mueller-Hinton agar dilution
Method: as §1, §2

S. marcescens = test: as above; format: cell-based; details: Serratia marcescens; clinical isolate, Mueller-Hinton agar dilution
Method: as §1

[5] = tested on: Carbapenem-resistant Acinetobacter baumannii BAA-1605; test: Antibacterial activity in animal infection model (mouse systemic infection); format: in vivo; details: for ED50: Acinetobacter baumannii, BAA1605, read-out: ED50 (dose needed for the 50 percentage survival rate); for ED50 times as low as ED50 value of Compound C: mouse systemic infection, A. baumannii BAA-1605, oral
Method: Antibacterial activity of the compounds from the present invention was examined in vivo according to the method described in S. Choi et al (Antimicrob. Agents Chemother 56 (9) 4713-4717. 2012).
Carbapenem-resistant Acinetobacter baumannii BAA-1605 was used as test strain and the test strain was intraperitoneally injected into mouse to cause the systemic infection. After 1 hour of infection, the compounds of EXAMPLEs 1, 2, 3, 5 and the control compounds were administrated orally to the mice.

SMILES | MIC (E. aerogenes) [µg/mL] | MIC (N. gonorrhoeae) [µg/mL] | MIC (C. freundii) [µg/mL] | MIC (P. mirabilis) [µg/mL] | MIC [1] [µg/mL] | MIC (M. morganii) [µg/mL] | MIC [2] [µg/mL] | MIC [3] [µg/mL] | MIC (P. vulgaris) [µg/mL] | MIC (E. cloacae) [µg/mL] | MIC [4] [µg/mL] | MIC (K. oxytoca) [µg/mL] | MIC (S. marcescens) [µg/mL] | ED50 [5] [mg/kg] | ED50 times as low as ED50 value of Compound C [5] [times]
C[C@@H]1COB2O[C@H](CN)c3cccc(c32)O1 [compound 4, ((2S,7R)-7-methyl-7,8-dihydro-2H-1,6,9-trioxa-9a-borabenzo[cd]azulen-2-yl) methanamine] | 1 (≈ 4.57 µM) | 0.5 (≈ 2.28 µM) | 0.5 (≈ 2.28 µM) | 1 (≈ 4.57 µM) | 1 (≈ 4.57 µM) | 0.5 (≈ 2.28 µM) | 1 (≈ 4.57 µM) | 1 (≈ 4.57 µM) | 1 (≈ 4.57 µM) | 1 (≈ 4.57 µM) | 8 (≈ 36.5 µM) | 1 (≈ 4.57 µM) | 2 (≈ 9.13 µM) |  | 
C[C@H]1COB2O[C@H](CN)c3cccc(c32)O1.Cl [EXAMPLE 5, ((2S, 7S)-7-methyl-7,8-dihydro-2H-1,6,9-trioxa-9a-borabenzo[cd]azulen-2-yl)methanamine hydrochloride] | 4 | 2 | 1 | 2 | 4 | 0.5 | 1 | 2 | 2 | 1 | 8 | 2 | 4 | 1.36 | 6.69
Cl.NC[C@H]1OB2O[C@H](CO)COc3cccc1c32 [Compound C, ((2S,8R)-2-(aminomethyl)-7,8-dihydro-2H-1,6,9-trioxa-9a-borabenzo[cd]azulen-8-yl)methanol hydrochloride, reference compound] | 4 |  | 2 | 8 | 4 | 2 | 2 | 2 | 8 | 2 | 8 | 2 |  | 9.07 | 
CC1COc2cccc3c2B(O1)OC3CN.Cl (centres unmarked) [Compound B, (8-methyl-7,8-dihydro-2H-1,6,9-trioxa-9a-borabenzo[cd]azulen-2-yl)methanamine hydrochloride, reference compound] | 2 |  | 1 | 8 | 8 | 4 | 2 | 4 | 16 | 2 | 64 | 2 |  | > 20 | 
Cl.NCC1OB2OCC(CO)Oc3cccc1c32 (centres unmarked) [compound D, (2-(aminomethyl)-7,8-dihydro-2H-1,6,9-trioxa-9a-borabenzo[cd]azulen-7-yl)methanol hydrochloride, reference compound] | 8 |  | 4 | 16 | 16 | 8 | 8 | 16 | 16 | 8 | 64 | 8 |  |  | 
Cl.NCC1OB2OCCOc3cccc1c32 (centres unmarked) [Compound A, (7,8-dihydro-2H-1,6,9-trioxa-9a-borabenzo[cd]azulen-2-yl)methanamine, reference compound] | 2 |  | 1 | 8 | > 128 | 2 | 2 | 4 | 32 | 2 | 8 | 2 |  | > 20 | 
C[C@@H]1COB2O[C@H](CN)c3cccc(c32)O1.Cl [EXAMPLE 3, ((2S,7R)-7-methyl-7,8-dihydro-2H-1,6,9-trioxa-9a-borabenzo[cd]azulen-2-yl)methanamine hydrochloride] | 2 | 0.5 | 1 | 2 | 1 | 1 | 1 | 2 | 2 | 1 | 16 | 1 | 4 | 0.909 | 9.98
C[C@@H](O)[C@H]1C(=O)N2C(C(=O)O)=C(S[C@@H]3CN[C@H](C(=O)N(C)C)C3)[C@H](C)[C@H]12 [MEPM, meropenem, reference compound] | < 0.0313 |  | < 0.0313 | 0.0625 (≈ 0.163 µM) | 32 (≈ 83.4 µM) | 0.125 (≈ 0.326 µM) | < 0.0313 | < 0.0313 | 0.0625 (≈ 0.163 µM) | < 0.0313 | 32 (≈ 83.4 µM) | < 0.0313 |  |  | 
CC1COB2O[C@H](CN)c3cccc(c32)O1.Cl (stereo partly drawn) [EXAMPLE 2, ((2S)-7-methyl-7,8-dihydro-2H-1,6,9-trioxa-9a-borabenzo[cd]azulen-2-yl)methanamine hydrochloride] | 2 | 1 | 1 | 2 | 2 | 1 | 1 | 2 | 2 | 1 | 8 | 2 | 4 | 1.36 | 6.69
CC1COB2OC(CN)c3cccc(c32)O1.Cl (centres unmarked) [EXAMPLE 1, (7-methyl-7,8-dihydro-2H-1,6,9-trioxa-9a-borabenzo[cd]azulen-2-yl)methanamine hydrochloride] | 4 | 2 | 1 | 2 | 4 | 2 | 2 | 2 | 4 | 2 | 32 | 2 | 4 | 1.75 | 5.18
